Experimental data reported in US9480740B2, “Synthetic glucopyranosyl lipid adjuvants” (priority 2009, dated 2016).

Key:
[1] = molecular target: T1, TLR4, MD-2, and CD14 (Homo sapiens, UniProt O00206+Q9Y6Y9); test: NF-kB reporter (secreted alkaline phosphatase, QUANTIBlue) assay in HEK 293 cells expressing TLR4, MD-2 and CD14; assay type: cell-based
T1 construct: host or cells: HEK 293
Protocol: (§1) Compound IX was tested in vitro using HEK 293 cells (InvivoGen) with expression vectors encoding 1) TLR4, MD-2, and CD14, or 2) TLR2 and TLR6 to define compound activity and dependence on TLR4, and to exclude activation of TLR2. These HEK 293 cell lines were further stably transfected with the NF-kB reporter vector pNifty-2 such that alkaline phosphatase is secreted into the growth media upon activation of the TLR signaling pathway. Transfected cell lines were plated at 5×10^4 cells per well in a 96-well plates and stimulated for 16-24 hours cultured in medium containing serial dilutions of Compound IX and other adjuvants. Secreted alkaline phosphatase activity was measured in the culture media using QUANTIBlue® assay (InvivoGen). The data was measured as enhancement of NF-kB above the PBS negative control. […] Compound IX was designed based on structural considerations of the reported atomic structure of MD2 and TLR4. […] Thus, it is expected that Compound IX and other illustrative compounds of the invention can be safely administered over a broad range of concentrations, which is highly desirable in the context of reproducibility of clinical outcomes among patients and for the safety in ranging a dose for adults and children. […]

[2] = test system: human whole blood cells; test: Induction of immunostimulatory cytokines (MIP-1-α and TNF-α ELISA) in human whole blood; assay type: cell-based; conditions: human whole blood from two donors, 1:5 serial dilutions, 20 hour incubation
Protocol: In this example, human whole blood cells were stimulated with Compound IX and ELISA assays were performed to detect the induction of immunostimulatory cytokines. Serial dilutions (1:5) of Compound IX and other adjuvants were performed with phosphate buffered saline in a 96 well plate for a total of 7 dilutions. 100 μl of freshly drawn human blood from two different donors were mixed and incubated with 100 μl of adjuvant dilutions. Following a 20 hour incubation, plates were centrifuged and supernatants (˜70 μl) were collected, avoiding red blood cells, and stored at −20° C. prior performing MIP-1-α and TNF-α ELISAs using standard biochemical procedures. […] Additionally, these primary donor results mimicked the results seen in human cell lines and extend these important findings in relation to the possible dose ranges and safety profiles for this compound.

[3] = test system: ID83 antigen (Mycobacterium tuberculosis antigenic polypeptide)-specific IFN-γ secreting splenocytes; test: ELISPOT of IFN-γ cytokine responses of splenocytes from mice vaccinated with ID83 antigen plus adjuvant; assay type: in vivo, Mice (C57BL/6)
[4] = molecular target: T2, TLR2 and TLR6 (Homo sapiens, UniProt O60603+Q9Y2C9); test: NF-kB reporter (secreted alkaline phosphatase, QUANTIBlue) assay in HEK 293 cells expressing TLR2 and TLR6; assay type: cell-based; conditions: HEK 293 cells with TLR2, TLR6 and NF-kB reporter
T2 construct: host or cells: HEK 293
Protocol: as §1

T1 sequence (O00206 24-839): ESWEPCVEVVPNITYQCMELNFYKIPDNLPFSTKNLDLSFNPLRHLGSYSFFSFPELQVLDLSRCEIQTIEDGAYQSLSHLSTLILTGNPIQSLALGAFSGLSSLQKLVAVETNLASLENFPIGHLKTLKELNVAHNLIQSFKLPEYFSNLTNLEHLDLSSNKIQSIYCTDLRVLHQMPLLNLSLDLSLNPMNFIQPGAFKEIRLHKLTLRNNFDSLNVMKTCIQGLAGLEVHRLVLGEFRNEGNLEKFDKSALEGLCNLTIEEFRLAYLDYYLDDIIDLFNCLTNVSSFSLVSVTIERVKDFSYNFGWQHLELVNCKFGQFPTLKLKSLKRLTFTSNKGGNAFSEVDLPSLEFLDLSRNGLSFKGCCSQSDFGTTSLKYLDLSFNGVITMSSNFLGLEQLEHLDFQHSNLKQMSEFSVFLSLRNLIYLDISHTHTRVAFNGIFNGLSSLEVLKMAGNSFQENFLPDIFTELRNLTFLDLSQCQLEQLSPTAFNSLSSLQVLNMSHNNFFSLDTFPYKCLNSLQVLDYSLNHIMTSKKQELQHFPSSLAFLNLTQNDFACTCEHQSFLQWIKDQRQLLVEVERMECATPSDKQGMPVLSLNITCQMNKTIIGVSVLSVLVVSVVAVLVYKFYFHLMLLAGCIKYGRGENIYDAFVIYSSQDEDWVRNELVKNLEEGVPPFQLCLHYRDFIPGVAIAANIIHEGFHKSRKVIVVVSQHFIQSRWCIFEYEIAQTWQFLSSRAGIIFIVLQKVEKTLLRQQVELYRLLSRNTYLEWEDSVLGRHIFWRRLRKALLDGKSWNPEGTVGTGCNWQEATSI
T1 sequence (Q9Y6Y9 17-160 limits assumed): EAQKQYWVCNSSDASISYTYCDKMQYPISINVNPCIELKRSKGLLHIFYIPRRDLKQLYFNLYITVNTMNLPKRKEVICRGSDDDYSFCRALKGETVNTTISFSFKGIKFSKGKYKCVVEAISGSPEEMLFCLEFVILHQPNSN
T2 sequence (O60603 21-784): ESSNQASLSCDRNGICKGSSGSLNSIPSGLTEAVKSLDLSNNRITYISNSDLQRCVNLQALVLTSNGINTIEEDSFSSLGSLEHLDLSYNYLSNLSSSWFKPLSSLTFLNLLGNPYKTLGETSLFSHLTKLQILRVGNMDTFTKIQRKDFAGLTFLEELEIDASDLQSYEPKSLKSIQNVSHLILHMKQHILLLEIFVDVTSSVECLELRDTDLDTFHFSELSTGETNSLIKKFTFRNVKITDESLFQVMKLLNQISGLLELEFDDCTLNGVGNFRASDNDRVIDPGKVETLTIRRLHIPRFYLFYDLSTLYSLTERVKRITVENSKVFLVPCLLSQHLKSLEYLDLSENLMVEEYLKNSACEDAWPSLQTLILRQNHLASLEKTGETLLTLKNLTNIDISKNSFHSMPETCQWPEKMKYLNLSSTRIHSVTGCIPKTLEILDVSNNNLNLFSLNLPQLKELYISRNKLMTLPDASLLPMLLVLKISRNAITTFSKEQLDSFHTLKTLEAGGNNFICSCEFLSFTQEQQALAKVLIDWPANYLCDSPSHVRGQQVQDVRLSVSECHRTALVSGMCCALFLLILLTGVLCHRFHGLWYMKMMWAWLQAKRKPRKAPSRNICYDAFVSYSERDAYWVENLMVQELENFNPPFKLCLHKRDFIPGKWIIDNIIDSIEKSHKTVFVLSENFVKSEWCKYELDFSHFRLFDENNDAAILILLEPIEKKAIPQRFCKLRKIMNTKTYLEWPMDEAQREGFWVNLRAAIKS
T2 sequence (Q9Y2C9 32-796): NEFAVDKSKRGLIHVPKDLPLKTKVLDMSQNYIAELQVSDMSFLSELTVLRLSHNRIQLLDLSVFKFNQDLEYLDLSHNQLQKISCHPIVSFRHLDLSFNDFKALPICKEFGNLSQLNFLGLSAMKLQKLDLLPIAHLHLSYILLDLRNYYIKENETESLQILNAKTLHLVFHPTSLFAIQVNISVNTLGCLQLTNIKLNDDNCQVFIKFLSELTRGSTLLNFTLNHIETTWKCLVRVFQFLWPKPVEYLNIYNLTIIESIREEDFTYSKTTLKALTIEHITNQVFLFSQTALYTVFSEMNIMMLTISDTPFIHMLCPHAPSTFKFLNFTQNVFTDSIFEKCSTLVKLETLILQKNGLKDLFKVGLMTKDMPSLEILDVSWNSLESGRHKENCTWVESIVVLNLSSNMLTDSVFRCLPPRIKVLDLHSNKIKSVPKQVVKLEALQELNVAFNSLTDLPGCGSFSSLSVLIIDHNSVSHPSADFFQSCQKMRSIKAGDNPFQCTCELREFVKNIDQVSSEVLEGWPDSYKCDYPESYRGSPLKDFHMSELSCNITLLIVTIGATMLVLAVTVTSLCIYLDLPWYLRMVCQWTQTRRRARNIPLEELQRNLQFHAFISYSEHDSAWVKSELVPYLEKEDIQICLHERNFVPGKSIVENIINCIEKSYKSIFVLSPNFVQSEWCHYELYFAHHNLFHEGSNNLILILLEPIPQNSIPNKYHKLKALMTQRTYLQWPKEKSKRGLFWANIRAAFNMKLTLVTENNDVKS

Compound: CCCCCCCCCCC[C@@H](O)CC(=O)N[C@@H]1C(O)OC(CO[C@@H]2OC(CO)[C@@H](OP(=O)(O)O)[C@H](OC(=O)C[C@@H](CCCCCCCCCCC)OC(=O)CCCCCCCCC)[C@@H]2NC(=O)C[C@@H](CCCCCCCCCCC)OC(=O)CCCCCCCCC)[C@@H](O)[C@@H]1OC(=O)C[C@H](O)CCCCCCCCCCC (stereo partly drawn) [Compound IX, (3R)-((2R,3S,4R,5S)-3-((R)-3-(DECANOYLOXY)TETRADECANAMIDO)-2-(((3S,4R,5S)-3,6-DIHYDROXY-5-((R)-3-HYDROXYTETRADECANAMIDO)-4-((R)-3-HYDROXYTETRADECANOYLOXY)TETRAHYDRO-2H-PYRAN-2-YL)METHOXY)-6-(HYDROXYMETHYL)-5-(PHOSPHONOOXY)TETRAHYDRO-2H-PYRAN-4-YL) 3-(DECANOYLOXY)TETRADECANOATE]
- TLR4 agonist activity ([1]; HEK 293 cells with TLR4, MD-2, CD14 and NF-kB reporter): clear TLR4 agonist activity
- shape of profile with increasing concentration ([1]; serial dilutions): plateaus rapidly as concentrations are increased
- immunostimulatory activity (induction of MIP-1-α and TNF-α) [2]: has immunostimulatory activity in primary human blood cells
- ID83 antigen-specific IFN-γ cytokine responses (IFN-γ secreting cells per million of splenocytes, ELISPOT) ([3]; C57BL/6 mice, 8 μg ID83 + 10 μg adjuvant in stable emulsion, three immunizations at three-week intervals, three weeks after the third immunization): induced robust ID83 antigen-specific cytokine responses
- type of antigen-specific immune response induced (conclusion) ([3]; Compound IX in a stable oil formulation with ID83): induced predominantly antigen-specific immune responses of the cellular type (T cell) associated with the protective TH1 phenotype
- induction of TLR2 [4]: did not appear to be associated with induction of TLR2
